In US4346087A, “Antibacterial surface active agent containing azaalkenelactam” (priority 1979, dated 1982):
≈ marks a conversion by molar mass, not a printed value. Where two headings read alike, the source gives them in different places.

Experiments:
[1] = test system: Escherichia coli NIHJ; experiment: MIC against Escherichia coli NIHJ; assay type: cell-based; conditions: Escherichia coli
Excerpt: (§1) Below are described the antibacterial activities of the compounds in the compositions according to this invention.
(§2) The testing method complied with the standard method of Japan Sociaty of Chemotherapy.

[2] = test system: Bacillus subtilis ATCC 6633; experiment: MIC against Bacillus subtilis ATCC 6633; assay type: cell-based; conditions: Bacillus subtilis
Excerpt: (§3) Below are described the antibacterial activities of the compounds in the compositions according to this invention. The results of antibacterial activity tests on the N-alkyl-substituted azaalkenelactams and their derivatives having a carboxylate radical of Examples 1 to 70 were as shown in Tables 1 to 3.
as §2

[3] = test system: Staphylococcus aureus FDA 209P; experiment: MIC against Staphylococcus aureus FDA 209P; assay type: cell-based; conditions: Staphylococcus aureus, FDA209P
Excerpt: as §1, §2

[4] = test system: Salmonella typhinurium; experiment: microbe, parasite or virus in culture; assay type: cell-based, Salmonella typhimurium; conditions: Table 3, heart infusion agar, 37° C., 24 hours, read-out: MIC
Excerpt: as §3, §2

[5] = test system: Staphylococcus epidermidis; experiment: MIC against Staphylococcus epidermidis; assay type: cell-based; conditions: Staphylococcus epidermidis
Excerpt: as §3, §2

[6] = test system: Pseudomonas aruginosa IFO 3443; experiment: MIC against Pseudomonas aeruginosa; assay type: cell-based; conditions: Pseudomonas
Excerpt: as §3, §2

[7] = test system: Streptococcus faecalis; experiment: MIC against Streptococcus faecalis; assay type: cell-based; conditions: Enterococcus faecalis
Excerpt: as §3, §2

[8] = test system: Desulfovibrio desulfuricans IFO 13699; experiment: MIC against Desulfovibrio desulfuricans; assay type: cell-based; conditions: Desulfovibrio desulfuricans
Excerpt: as §1, §2

[9] = test system: Pasteurella multocida; experiment: MIC against Pasteurella multocida; assay type: cell-based; conditions: Pasteurella multocida
Excerpt: as §3, §2

[10] = Table 1, azaalkenelactams, heart infusion agar, 37° C., 24 hours, read-out: MIC
[11] = ATCC6633, Table 3, heart infusion agar, 37° C., 24 hours, read-out: MIC
[12] = Table 3, heart infusion agar, 37° C., 24 hours, read-out: MIC
[13] = IFO3443, Table 3, heart infusion agar, 37° C., 24 hours, read-out: MIC
[14] = IFO13699, Table 1, azaalkenelactams, heart infusion agar, 37° C., 24 hours, read-out: MIC

## CCCCCCCCCCCCNCCN1CCN=C(C)CC1=O [Example 2, 4-dodecylaminoethyl-7-methyl-3,6-dihydro-2H-1,4-diazepin-5-one]
[1]; [10]
  MIC: 25 µg/mL (≈ 74.1 µM)
[2]; [11]
  MIC: 12.5 µg/mL (≈ 37 µM)
[3]; [10]
  MIC: 12.5 µg/mL (≈ 37 µM)
[4]
  MIC: 3.12 µg/mL (≈ 9.24 µM)
[5]; [12]
  MIC: 1.56 µg/mL (≈ 4.62 µM)
[6]; [13]
  MIC: 100 µg/mL (≈ 296 µM)
[7]; [12]
  MIC: 12.5 µg/mL (≈ 37 µM)
[8]; [14]
  MIC: 12.5 µg/mL (≈ 37 µM)
[9]; 24 h
  MIC: < 1.56 µg/mL

## CCCCCCCCCCCCCCC(O)CNCCN1CCN=CCCC1=O (stereo not drawn) [Example 54, 4-(2-hydroxyhexadecyl)aminoethyl-2,3,6,7-tetrahydro-1,4-diazocin-5-one]
[1]; 24 h
  MIC: 6.25 µg/mL (≈ 15.3 µM)
[2]; ATCC6633, 24 h
  MIC: 3.12 µg/mL (≈ 7.62 µM)
[3]; 24 h
  MIC: 6.25 µg/mL (≈ 15.3 µM)
[4]
  MIC: 3.12 µg/mL (≈ 7.62 µM)
[5]; [12]
  MIC: 1.56 µg/mL (≈ 3.81 µM)
[6]; IFO3443, 24 h
  MIC: 200 µg/mL (≈ 488 µM)
[7]; 24 h
  MIC: 6.25 µg/mL (≈ 15.3 µM)
[8]; IFO13699, 24 h
  MIC: 6.25 µg/mL (≈ 15.3 µM)
[9]; [12]
  MIC: < 1.56 µg/mL

## CCCCCCCCCCCCCCNCCN1CCN=C(C)CC1=O [Example 35, 4-tetradecylaminoethyl-7-methyl-3,6-dihydro-2H-1,4-diazepin-5-one]
[1]; 24 h
  MIC: 6.25 µg/mL (≈ 17.1 µM)
[2]; [11]
  MIC: 3.12 µg/mL (≈ 8.53 µM)
[3]; [10]
  MIC: 1.56 µg/mL (≈ 4.27 µM)
[4]
  MIC: 1.56 µg/mL (≈ 4.27 µM)
[5]; 24 h
  MIC: < 1.56 µg/mL
[6]; [13]
  MIC: 54 µg/mL (≈ 148 µM)
[7]; [12]
  MIC: 3.12 µg/mL (≈ 8.53 µM)
[8]; [14]
  MIC: 1.56 µg/mL (≈ 4.27 µM)
[9]; 24 h
  MIC: < 1.56 µg/mL

## CCCCCCCCCCCCCCNCCN1CCN=CCC(C)C1=O (stereo not drawn) [Example 65, 4-tetradecylaminoethyl-6-methyl-2,3,6,7-tetrahydro-1,4-diazocin-5-one]
[1]; 24 h
  MIC: 12.5 µg/mL (≈ 32.9 µM)
[2]; ATCC6633, 24 h
  MIC: 3.12 µg/mL (≈ 8.22 µM)
[3]; [10]
  MIC: 3.12 µg/mL (≈ 8.22 µM)
[4]
  MIC: 3.12 µg/mL (≈ 8.22 µM)
[5]; [12]
  MIC: 1.56 µg/mL (≈ 4.11 µM)
[6]; IFO3443, 24 h
  MIC: 100 µg/mL (≈ 263 µM)
[7]; 24 h
  MIC: 6.25 µg/mL (≈ 16.5 µM)
[8]; IFO13699, 24 h
  MIC: 6.25 µg/mL (≈ 16.5 µM)
[9]; [12]
  MIC: < 1.56 µg/mL
